Our source for the ECAUC0.2 and ED50 values is ChEMBL document CHEMBL1129842, “ATP-sensitive potassium channel openers: Synthesis and antihypertensive activity of 4-bicyclyloxybenzopyrans” (1997).

Experiment [1] deals with Rattus norvegicus. Kind of experiment: Potassium channel opening activity is expressed as area under curve (AUC), determined in spontaneously hypertensive rats (SHR's) after oral administration. In kind it is functional.
The subject of experiment [2] is Rattus norvegicus. Kind of experiment: Antihypertensive activity in spontaneously hypertensive rats (SHR''s) was evaluated after oral administration; ED50 mmHg. Format: functional.
The mark [3] stands for this setting: Rattus norvegicus, po, read-out: ED50.

Molecules are shown by their SMILES.

Usually ED50 stands for the dose at which the effect has come halfway, by size or by number of responders. In the experiment with Rattus norvegicus [1], `CN1N=C(O[C@@H]2c3cc(C#N)ccc3OC(C)(C)[C@@]2(C)O)[C@@H]2C[C@@H]2C1=O` gave an ECAUC0.2 of 0.021 µM. Further, the 50% effective dose (ED50) with Rattus norvegicus [2] (setting [3]) came out at 0.0023 mg/kg.
Turning to `Cn1nc(OC2c3cc(C#N)ccc3OC(C)(C)C2O)ccc1=O` (racemic), the ECAUC0.2 in the experiment on Rattus norvegicus [1] was determined as 0.25 µM. Further, the ED50 in the experiment on Rattus norvegicus [2] (setting [3]) is 0.023 mg/kg.
`CC1(C)Oc2ccc(C#N)cc2[C@@H](N2CCCC2=O)[C@@H]1O` [LEVCROMAKALIM] showed an ECAUC0.2 in the experiment on Rattus norvegicus [1] of 1.6 µM. Moreover, in the experiment on Rattus norvegicus [2] (setting [3]), the ED50 came out at 0.14 mg/kg.
In the case of `CN1N=C(O[C@@H]2c3cc(C(F)(F)C(F)(F)F)ccc3OC(C)(C)[C@H]2O)[C@@H]2C[C@@H]2C1=O` (racemic), the ED50 in the experiment on Rattus norvegicus [2] (setting [3]) came to 0.047 mg/kg.
Turning to `CC1(C)Oc2ccc(C#N)cc2C(N2CCCC2=O)C1O` (racemic) [CROMAKALIM], the ECAUC0.2 with Rattus norvegicus [1] was determined as 2.8 µM. Further, in the experiment on Rattus norvegicus [2] (setting [3]), the ED50 was 0.31 mg/kg.
`CN1N=C(OC2c3cc(C#N)ccc3OC(C)(C)C2O)C2CC2C1=O` (racemic; form 2) registered an ECAUC0.2 with Rattus norvegicus [1] of 0.39 µM. This compound yielded an ED50 with Rattus norvegicus [2] of 0.047 mg/kg.
Compound `CN1N=C(O[C@@H]2c3cc(C#N)ccc3OC(C)(C)[C@H]2O)C2CC2C1=O` (single isomer, unassigned; (-)) registered an ECAUC0.2 in the experiment on Rattus norvegicus [1] of 0.18 µM. The ED50 in the experiment on Rattus norvegicus [2] (setting [3]) was 0.029 mg/kg.
The corresponding values for `Cn1nc(O[C@@H]2c3cc(C#N)ccc3OC(C)(C)[C@H]2O)ccc1=O` are 0.16 µM and 0.0064 mg/kg.
`CN1N=C(OC2c3cc(C#N)ccc3OC(C)(C)C2O)C2CC2C1=O` (racemic; form 1) displayed an ED50 with Rattus norvegicus [2] above 1 mg/kg.
Take `Cn1nc(OC2c3cc(C#N)ccc3OC(C)(C)C2O)c2c(c1=O)CCC2` (racemic): in the experiment with Rattus norvegicus [2] (setting [3]), the ED50 amounted to 0.86 mg/kg.
For the compound `CN1N=C(O[C@@H]2c3cc(C#N)ccc3OC(C)(C)[C@H]2O)C2C(C1=O)C2(C)C` (mixture of isomers), the ED50 with Rattus norvegicus [2] (setting [3]) is above 0.1 mg/kg.
As to `CN1N=C(OC2c3cc([N+](=O)[O-])ccc3OC(C)(C)C2O)C2CC2C1=O` (racemic), the ED50 in the experiment with Rattus norvegicus [2] (setting [3]) came out at 0.049 mg/kg.
On to `CN1N=C(OC2c3ccc([N+](=O)[O-])cc3OC(C)(C)C2O)C2CC2C1=O` (racemic), for which the 50% effective dose (ED50) with Rattus norvegicus [2] (setting [3]) was above 0.3 mg/kg.
On to `CN1N=C(N[C@@H]2c3cc(C#N)ccc3OC(C)(C)[C@H]2O)[C@@H]2C[C@@H]2C1=O`, for which, in the experiment on Rattus norvegicus [2] (setting [3]), the ED50 stood at 0.0065 mg/kg.
The same measure, in the same setting: in the case of `CN1N=C(OC2c3cc(C#N)ccc3OC(C)(C)C2(C)O)C2CC2C1=O` (racemic) it was 0.0042 mg/kg.
For the compound `Cn1nc(OC2c3cc(C#N)ccc3OC(C)(C)C2O)c2ccccc2c1=O` (racemic), the ED50 in the experiment with Rattus norvegicus [2] (setting [3]) was above 10 mg/kg.
